Assay [1] addresses Serine/threonine-protein kinase pim-1 (Homo sapiens, UniProt P11309). The assay can be described thus: Selectivity interaction (Kinase panel (Z-LYTE Assay)) EUB0001632a PIM1. The conditions noted are these: at 10 µM.
The target in assay [2] is Mitogen-activated protein kinase 3 (Homo sapiens, UniProt P27361). Nature of the assay: Selectivity interaction (Kinase panel (KiNativ target engagement assay in Jurkat cells)) EUB0001635a MAPK3. The conditions noted are these: Selectivity number of off-targets 0.0, Selectivity number of targets 233.0, Source Knowledge https://www.sciencedirect.com/science/article/pii/S2451945619300674?via%3Dihub, at 1 µM. It counts as cell-based.
Mitogen-activated protein kinase 3, sequence (P27361 whole entry): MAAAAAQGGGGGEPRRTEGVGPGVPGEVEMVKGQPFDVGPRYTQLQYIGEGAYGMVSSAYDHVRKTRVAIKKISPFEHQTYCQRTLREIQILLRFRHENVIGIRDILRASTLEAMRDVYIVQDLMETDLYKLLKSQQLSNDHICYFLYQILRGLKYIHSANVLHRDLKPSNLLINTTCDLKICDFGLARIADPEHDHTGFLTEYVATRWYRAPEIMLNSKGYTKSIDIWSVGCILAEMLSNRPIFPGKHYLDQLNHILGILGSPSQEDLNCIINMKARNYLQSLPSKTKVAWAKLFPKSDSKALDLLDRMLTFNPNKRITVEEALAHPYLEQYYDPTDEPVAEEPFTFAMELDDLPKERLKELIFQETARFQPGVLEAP

Assay [3] addresses T1, Serine/threonine-protein kinase DCLK3 (Homo sapiens) (UniProt Q9C098).
T1 sequence (whole entry): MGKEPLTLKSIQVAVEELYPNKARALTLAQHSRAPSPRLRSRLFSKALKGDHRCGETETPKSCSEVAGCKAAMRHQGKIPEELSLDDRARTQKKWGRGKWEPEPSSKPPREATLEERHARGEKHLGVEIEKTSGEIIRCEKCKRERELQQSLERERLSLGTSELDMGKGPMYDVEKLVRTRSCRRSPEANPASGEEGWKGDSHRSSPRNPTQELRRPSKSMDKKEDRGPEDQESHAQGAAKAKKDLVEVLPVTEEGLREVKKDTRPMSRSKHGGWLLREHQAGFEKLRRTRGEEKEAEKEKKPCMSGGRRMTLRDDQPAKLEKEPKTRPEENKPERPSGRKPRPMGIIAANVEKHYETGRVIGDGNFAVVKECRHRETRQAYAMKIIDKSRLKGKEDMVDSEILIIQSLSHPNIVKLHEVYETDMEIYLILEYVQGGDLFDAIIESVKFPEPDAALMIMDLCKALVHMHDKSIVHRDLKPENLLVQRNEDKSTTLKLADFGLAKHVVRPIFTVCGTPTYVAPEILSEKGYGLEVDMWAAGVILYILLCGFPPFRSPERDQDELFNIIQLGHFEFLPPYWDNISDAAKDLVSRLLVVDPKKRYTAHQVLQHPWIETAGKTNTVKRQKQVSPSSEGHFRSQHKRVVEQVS
The conditions noted are these: at 10 µM.

For assay [4], the target named is High affinity nerve growth factor receptor (Homo sapiens, UniProt P04629). Nature of the assay: Selectivity interaction (SelectScreen Kinase Profiling (Thermo Fisher Scientific)) EUB0001558a NTRK1. The conditions noted are these: at 1 µM.
High affinity nerve growth factor receptor, sequence (P04629 33-796 limits assumed): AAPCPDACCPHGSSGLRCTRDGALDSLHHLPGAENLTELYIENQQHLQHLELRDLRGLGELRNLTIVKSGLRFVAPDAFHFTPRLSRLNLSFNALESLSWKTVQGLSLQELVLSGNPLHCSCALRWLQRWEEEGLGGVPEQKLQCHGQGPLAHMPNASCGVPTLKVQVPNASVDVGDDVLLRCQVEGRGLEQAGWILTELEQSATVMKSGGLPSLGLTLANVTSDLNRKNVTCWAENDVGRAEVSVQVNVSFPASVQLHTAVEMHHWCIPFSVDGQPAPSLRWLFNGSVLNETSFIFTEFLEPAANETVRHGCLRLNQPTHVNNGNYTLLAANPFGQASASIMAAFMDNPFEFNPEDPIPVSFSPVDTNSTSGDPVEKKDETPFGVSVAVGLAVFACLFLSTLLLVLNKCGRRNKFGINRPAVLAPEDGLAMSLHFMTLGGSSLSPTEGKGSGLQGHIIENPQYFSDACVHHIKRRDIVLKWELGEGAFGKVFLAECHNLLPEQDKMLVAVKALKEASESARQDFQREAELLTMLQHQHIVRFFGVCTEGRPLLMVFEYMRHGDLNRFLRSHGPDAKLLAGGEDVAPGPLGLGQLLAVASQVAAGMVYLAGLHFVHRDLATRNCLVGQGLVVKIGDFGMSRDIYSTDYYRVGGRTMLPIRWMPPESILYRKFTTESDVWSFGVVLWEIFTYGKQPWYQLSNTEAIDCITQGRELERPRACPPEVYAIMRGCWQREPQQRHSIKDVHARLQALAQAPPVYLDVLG
Assay [5] deals with Serine/threonine-protein kinase PAK 2 (Homo sapiens) (UniProt Q13177). The assay can be described thus: Selectivity interaction (KinomeScan (DiscoverX)) EUB0001619a PAK2. The conditions noted are these: at 1 µM.
Serine/threonine-protein kinase PAK 2 (Homo sapiens), sequence (Q13177 whole entry): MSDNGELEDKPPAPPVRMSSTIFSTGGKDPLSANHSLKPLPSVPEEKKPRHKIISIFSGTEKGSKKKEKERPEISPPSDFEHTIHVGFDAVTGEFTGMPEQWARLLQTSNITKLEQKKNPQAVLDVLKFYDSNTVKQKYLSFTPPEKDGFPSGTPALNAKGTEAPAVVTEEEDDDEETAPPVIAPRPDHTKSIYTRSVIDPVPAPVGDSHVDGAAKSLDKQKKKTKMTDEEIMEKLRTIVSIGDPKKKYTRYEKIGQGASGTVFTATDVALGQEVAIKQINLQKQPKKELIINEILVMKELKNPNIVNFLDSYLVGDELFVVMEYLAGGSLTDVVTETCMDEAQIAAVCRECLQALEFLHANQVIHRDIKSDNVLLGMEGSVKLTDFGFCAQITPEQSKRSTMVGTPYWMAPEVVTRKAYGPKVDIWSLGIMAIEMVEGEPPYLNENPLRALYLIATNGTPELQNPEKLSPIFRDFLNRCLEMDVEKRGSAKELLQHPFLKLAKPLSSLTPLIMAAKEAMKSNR
The target of assay [6] is Phosphatidylinositol 3-kinase catalytic subunit type 3 (Homo sapiens, UniProt Q8NEB9). The assay can be described thus: Selectivity interaction (ActivX KiNativ screen (kinase selectivity in THP-1 cell lysates)) EUB0000639a PIK3C3. It counts as subcellular. The conditions noted are these: lysate, at 0.2 µM.
The target in assay [7] is T2, Serine/threonine-protein kinase D3 (Homo sapiens) (UniProt O94806).
T2 sequence (whole entry): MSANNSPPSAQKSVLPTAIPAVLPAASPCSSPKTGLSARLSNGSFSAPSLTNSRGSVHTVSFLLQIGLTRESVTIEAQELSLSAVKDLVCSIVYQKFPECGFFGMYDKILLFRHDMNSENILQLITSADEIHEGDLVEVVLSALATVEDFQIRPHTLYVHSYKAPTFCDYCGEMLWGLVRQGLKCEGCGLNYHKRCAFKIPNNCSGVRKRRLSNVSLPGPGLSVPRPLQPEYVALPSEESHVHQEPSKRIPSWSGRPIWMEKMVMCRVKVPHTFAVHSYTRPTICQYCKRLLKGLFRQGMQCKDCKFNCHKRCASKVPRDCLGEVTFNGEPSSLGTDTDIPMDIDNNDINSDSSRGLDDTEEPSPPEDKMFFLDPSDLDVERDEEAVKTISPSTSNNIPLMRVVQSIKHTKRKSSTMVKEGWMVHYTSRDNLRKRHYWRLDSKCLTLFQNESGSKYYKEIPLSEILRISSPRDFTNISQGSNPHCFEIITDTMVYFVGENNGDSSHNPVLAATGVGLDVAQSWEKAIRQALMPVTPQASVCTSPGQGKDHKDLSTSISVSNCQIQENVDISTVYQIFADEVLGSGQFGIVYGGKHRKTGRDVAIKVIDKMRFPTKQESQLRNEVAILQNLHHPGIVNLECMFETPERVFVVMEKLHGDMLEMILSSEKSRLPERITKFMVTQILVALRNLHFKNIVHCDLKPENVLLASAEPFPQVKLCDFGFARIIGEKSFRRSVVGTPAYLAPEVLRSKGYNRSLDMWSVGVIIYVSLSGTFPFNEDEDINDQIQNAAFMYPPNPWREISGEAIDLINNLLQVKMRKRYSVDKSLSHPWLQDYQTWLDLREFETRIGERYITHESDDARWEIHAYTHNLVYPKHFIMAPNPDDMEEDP
The assay can be described thus: Selectivity interaction (KinomeScan (DiscoverX)) EUB0000695a PRKD3. The conditions noted are these: at 100 nM.

Assay [8] has as its target Ephrin type-A receptor 2 (Homo sapiens) (UniProt P29317). Nature of the assay: Selectivity interaction (ProQinase) EUB0000171b EPHA2.
For assay [9], the target named is Serine/threonine-protein kinase WNK1 (Homo sapiens) (UniProt Q9H4A3). Nature of the assay: Selectivity interaction (Kinase panel (DSF assay)) EUB0001559a WNK1. (In general: DSF heats the sample and reads unfolding from a dye or from intrinsic fluorescence.)
Serine/threonine-protein kinase WNK1 (Homo sapiens), sequence (Q9H4A3 whole entry, looked up): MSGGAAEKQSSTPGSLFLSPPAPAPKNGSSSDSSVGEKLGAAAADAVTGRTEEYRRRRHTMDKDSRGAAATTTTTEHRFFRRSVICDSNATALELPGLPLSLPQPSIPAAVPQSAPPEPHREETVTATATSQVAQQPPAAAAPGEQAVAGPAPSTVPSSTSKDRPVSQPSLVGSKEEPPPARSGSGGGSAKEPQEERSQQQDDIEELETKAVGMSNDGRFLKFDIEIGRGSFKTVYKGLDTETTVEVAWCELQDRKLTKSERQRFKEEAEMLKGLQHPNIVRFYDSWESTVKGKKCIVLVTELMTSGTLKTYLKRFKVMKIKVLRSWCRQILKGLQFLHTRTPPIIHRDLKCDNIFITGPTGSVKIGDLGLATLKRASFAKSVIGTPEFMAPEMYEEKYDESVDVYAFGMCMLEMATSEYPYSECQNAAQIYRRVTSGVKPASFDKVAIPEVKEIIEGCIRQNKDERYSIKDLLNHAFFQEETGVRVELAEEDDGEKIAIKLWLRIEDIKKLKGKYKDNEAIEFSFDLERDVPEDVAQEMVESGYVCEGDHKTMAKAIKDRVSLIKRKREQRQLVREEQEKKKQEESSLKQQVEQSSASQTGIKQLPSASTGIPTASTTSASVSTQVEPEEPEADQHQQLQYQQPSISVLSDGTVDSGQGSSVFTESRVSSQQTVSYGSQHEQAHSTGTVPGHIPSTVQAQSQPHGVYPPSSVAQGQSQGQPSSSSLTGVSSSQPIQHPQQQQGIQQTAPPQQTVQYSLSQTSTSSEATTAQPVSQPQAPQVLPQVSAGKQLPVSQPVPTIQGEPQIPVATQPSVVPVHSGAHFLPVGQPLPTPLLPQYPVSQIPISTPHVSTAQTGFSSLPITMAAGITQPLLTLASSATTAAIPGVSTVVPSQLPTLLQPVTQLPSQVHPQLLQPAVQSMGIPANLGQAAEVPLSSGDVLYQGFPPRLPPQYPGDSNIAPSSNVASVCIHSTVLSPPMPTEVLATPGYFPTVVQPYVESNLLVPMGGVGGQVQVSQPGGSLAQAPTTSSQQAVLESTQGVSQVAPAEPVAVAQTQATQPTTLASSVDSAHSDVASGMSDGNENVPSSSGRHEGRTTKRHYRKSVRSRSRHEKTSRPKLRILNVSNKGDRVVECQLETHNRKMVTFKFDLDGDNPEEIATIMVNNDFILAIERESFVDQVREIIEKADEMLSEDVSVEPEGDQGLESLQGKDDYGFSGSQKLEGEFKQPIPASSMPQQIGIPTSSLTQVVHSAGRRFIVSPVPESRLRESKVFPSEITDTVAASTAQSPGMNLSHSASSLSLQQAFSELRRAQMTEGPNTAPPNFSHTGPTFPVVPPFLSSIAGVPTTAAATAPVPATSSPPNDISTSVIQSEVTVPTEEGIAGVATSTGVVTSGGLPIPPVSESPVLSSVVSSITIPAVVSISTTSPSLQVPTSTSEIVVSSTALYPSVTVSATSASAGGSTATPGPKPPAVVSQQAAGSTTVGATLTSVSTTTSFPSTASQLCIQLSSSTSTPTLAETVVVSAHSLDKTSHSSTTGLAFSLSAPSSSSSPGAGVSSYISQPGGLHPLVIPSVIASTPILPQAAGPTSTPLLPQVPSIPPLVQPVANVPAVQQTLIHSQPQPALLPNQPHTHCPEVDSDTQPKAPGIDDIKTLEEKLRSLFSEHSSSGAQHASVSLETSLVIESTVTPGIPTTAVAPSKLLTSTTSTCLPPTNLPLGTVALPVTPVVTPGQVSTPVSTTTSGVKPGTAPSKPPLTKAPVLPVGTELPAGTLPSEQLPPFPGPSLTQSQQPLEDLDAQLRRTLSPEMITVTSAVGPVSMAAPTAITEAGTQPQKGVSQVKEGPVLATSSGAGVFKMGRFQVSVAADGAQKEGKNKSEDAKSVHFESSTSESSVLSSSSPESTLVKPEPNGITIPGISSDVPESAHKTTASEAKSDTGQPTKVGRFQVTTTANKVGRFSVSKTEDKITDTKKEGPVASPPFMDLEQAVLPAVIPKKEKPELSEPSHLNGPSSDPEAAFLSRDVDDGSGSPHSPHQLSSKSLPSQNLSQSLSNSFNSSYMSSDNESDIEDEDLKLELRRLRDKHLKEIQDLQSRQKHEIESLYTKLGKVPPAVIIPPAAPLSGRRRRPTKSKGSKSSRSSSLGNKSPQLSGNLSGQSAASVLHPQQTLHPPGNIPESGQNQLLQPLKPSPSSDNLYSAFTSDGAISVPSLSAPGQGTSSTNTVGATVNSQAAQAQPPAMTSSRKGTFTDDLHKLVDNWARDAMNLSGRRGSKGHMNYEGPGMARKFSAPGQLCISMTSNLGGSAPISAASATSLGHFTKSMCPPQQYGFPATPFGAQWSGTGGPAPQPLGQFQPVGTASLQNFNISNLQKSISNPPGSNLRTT

The text below walks through data of ChEMBL document CHEMBL5465560, “Selectivity Literature for EUbOPEN Chemogenomic Library” (2024).

Ephrin type-A receptor 2 (Homo sapiens), sequence (P29317 whole entry): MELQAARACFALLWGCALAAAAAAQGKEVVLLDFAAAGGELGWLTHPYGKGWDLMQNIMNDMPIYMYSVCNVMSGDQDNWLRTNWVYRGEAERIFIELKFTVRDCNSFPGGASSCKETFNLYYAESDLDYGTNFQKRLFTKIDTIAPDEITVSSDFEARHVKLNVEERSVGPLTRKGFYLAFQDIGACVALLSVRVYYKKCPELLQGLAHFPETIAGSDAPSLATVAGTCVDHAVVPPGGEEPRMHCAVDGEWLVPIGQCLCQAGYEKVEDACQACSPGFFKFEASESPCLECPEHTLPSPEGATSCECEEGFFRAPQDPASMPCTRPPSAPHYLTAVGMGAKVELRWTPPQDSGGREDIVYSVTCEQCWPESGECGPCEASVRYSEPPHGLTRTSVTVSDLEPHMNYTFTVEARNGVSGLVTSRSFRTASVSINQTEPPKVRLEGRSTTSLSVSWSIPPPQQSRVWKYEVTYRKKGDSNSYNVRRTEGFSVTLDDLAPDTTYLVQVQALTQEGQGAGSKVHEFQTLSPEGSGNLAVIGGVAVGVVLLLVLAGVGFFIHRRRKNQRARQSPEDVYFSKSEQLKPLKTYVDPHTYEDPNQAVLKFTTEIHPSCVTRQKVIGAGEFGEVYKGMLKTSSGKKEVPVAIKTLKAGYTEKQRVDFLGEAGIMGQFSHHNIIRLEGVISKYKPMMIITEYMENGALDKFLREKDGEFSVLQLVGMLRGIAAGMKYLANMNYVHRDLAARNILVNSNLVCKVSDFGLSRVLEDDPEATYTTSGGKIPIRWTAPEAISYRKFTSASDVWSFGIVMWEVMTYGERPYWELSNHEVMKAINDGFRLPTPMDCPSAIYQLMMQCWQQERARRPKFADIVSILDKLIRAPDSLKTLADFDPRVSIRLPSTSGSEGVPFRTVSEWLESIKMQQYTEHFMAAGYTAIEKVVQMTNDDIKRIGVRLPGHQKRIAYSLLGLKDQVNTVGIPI

Take `Cn1cc(-n2cnc3c(NCc4nc5cc(Cl)c(Cl)cc5[nH]4)nc(N4CCOCC4)nc32)cn1`: in assay [1], the % of control was -1.78%.
In the case of `C=CC(=O)Nc1ccc(C(=O)Nc2[nH]nc3c2CN(C(=O)N[C@H](CN(C)C)c2ccccc2)C3(C)C)cc1`, the % of engagement in assay [2] is -1.4%.
`Cc1cc([C@@H](C)Nc2ccccc2C(=O)O)c2nc(N3CCOCC3)cc(=O)n2c1` [AZD-6482]: the % of control in [3] amounted to 85%.
On to `CC(C)(O)[C@H](F)CN1Cc2cc(NC(=O)c3cnn4cccnc34)c(N3CCOCC3)cc2C1=O`, for which the % of inhibition in [4] came out at 71%.
Turning to `N#Cc1cccc(-c2c[nH]c3ncnc(N4CCOCC4)c23)c1`, in assay [5], the % of control stood at 100%.
Turning to `CC[C@@H]1[C@H](F)C(=O)N[C@@H]1COc1nccc2cc(C(N)=O)c(OC)cc12` [ZIMLOVISERTIB], in [6], the % of inhibition is -20.4%.
With `Cc1cc(F)c(C(=O)Nc2cccc(-c3nncn3C(C)C)n2)cc1-n1cnc(C2CC2)c1`, the % of control in [7] was found to be 78%.
Turning to `C=CC(=O)Nc1cccc(C(=O)Nc2ccc(Nc3cc(-c4[nH]c(SC)nc4C)ccn3)cc2)c1`, the % of control came to 92% in assay [8] (at 1 µM) and 81% in assay [8] (at 5 µM).
Regarding `CN(C(=O)c1cnn2cccnc12)c1cc2c(cc1N1CCOCC1)C(=O)N(C[C@@H](F)C(C)(C)O)C2`, the dTM in [9] was -0.6 K.
